Reference: PMC10882719 (Frontiers in Neuroscience, 2024)
Read-outs that look alike come from different tables or passages of the source.

Assays:
Type in all cases: cell-based
[1] = biological target: T1, 168 GPCRs (Homo sapiens, UniProt O00574)
T1 construct: host or cells: PathHunter cell lines

[2] = biological target: T2, 168 GPCRs (Homo sapiens, UniProt P30874); conditions: SSTR2
T2 construct: host or cells: PathHunter cell lines

[3] = biological target: T3, 168 GPCRs (Homo sapiens, UniProt P35368); conditions: ADRA1B
T3 construct: host or cells: PathHunter cell lines
T3 sequence (P35368 1-520): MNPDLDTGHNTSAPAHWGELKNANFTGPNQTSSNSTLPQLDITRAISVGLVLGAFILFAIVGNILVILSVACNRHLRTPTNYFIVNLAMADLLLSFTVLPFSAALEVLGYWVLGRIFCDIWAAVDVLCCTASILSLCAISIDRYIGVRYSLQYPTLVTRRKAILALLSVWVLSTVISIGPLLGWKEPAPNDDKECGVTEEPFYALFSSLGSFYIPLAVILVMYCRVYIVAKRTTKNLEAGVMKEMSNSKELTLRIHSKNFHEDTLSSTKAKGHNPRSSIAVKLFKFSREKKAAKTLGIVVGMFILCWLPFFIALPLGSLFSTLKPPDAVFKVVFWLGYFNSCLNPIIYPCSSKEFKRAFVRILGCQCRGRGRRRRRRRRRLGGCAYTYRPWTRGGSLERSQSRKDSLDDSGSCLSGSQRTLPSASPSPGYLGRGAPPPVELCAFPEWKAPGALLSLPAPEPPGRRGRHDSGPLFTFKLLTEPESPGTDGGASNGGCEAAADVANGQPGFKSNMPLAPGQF

[4] = biological target: T4, 168 GPCRs (Homo sapiens, UniProt P41145); conditions: OPRK1
T4 construct: host or cells: PathHunter cell lines

[5] = biological target: T5, 168 GPCRs (Homo sapiens, UniProt Q8TCW9); conditions: PROKR1
T5 construct: host or cells: PathHunter cell lines

[6] = biological target: T6, 168 GPCRs (Homo sapiens, UniProt Q92847); conditions: GHSR
T6 construct: host or cells: PathHunter cell lines

[7] = biological target: T7, 168 GPCRs (Homo sapiens, UniProt Q96LB1)
T7 construct: host or cells: PathHunter cell lines
T7 sequence (Q96LB1 1-330): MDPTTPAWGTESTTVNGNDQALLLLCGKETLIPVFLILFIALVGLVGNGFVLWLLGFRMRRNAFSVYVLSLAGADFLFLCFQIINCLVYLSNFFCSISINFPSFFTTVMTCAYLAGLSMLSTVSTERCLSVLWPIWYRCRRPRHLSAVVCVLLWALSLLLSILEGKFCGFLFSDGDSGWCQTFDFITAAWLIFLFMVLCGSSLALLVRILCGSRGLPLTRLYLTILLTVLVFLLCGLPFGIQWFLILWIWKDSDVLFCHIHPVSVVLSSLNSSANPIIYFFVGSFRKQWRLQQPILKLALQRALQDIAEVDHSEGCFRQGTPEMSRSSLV

[8] = biological target: T8, 168 GPCRs (Homo sapiens, UniProt Q9UBY5)
T8 construct: host or cells: PathHunter cell lines
T8 sequence (Q9UBY5 1-353): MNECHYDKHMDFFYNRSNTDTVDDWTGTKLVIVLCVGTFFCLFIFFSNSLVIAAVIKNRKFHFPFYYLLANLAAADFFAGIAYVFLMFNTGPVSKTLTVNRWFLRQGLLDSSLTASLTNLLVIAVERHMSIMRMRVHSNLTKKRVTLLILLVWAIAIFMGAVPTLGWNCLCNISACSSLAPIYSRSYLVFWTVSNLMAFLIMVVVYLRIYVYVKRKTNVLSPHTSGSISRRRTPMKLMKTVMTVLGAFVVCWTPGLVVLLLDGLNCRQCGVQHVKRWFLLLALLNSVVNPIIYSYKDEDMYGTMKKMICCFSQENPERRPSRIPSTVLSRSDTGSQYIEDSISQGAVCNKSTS

[9] = biological target: T9, 168 GPCRs (Homo sapiens, UniProt Q9Y5N1)
T9 construct: host or cells: PathHunter cell lines
T9 sequence (Q9Y5N1 whole entry): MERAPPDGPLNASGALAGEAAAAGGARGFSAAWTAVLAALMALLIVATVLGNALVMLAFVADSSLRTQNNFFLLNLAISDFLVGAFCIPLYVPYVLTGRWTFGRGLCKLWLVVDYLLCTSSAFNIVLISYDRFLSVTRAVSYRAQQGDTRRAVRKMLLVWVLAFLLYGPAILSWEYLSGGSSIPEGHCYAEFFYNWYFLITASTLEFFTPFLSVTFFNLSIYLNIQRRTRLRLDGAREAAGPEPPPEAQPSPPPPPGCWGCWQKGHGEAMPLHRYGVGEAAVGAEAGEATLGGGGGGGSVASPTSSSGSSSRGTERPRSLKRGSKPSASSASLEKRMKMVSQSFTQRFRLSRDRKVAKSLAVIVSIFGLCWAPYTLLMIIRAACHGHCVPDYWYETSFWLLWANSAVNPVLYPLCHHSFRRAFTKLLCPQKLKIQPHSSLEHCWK

T6 sequence (Q92847 whole entry): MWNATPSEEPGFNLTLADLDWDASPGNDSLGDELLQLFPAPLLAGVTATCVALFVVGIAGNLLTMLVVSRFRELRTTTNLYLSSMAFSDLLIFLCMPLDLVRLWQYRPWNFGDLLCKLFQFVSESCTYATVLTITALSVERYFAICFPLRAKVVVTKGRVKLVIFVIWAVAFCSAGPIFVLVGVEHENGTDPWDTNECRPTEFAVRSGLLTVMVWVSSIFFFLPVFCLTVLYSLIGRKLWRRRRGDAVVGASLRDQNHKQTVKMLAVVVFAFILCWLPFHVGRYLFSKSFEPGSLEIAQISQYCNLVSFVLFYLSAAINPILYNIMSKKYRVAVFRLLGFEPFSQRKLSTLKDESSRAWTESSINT
T4 sequence (P41145 whole entry): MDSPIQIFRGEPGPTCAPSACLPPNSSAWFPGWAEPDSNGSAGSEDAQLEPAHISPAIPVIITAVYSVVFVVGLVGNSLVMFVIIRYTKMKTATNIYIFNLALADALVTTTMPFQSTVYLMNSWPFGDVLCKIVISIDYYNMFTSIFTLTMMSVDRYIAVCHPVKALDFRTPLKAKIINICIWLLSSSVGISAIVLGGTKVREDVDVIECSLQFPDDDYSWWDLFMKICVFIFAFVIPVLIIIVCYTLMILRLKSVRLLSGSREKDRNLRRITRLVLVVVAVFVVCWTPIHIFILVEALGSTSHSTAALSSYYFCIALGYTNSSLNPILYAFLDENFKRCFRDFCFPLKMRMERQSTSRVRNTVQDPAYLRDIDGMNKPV
T1 sequence (O00574 whole entry): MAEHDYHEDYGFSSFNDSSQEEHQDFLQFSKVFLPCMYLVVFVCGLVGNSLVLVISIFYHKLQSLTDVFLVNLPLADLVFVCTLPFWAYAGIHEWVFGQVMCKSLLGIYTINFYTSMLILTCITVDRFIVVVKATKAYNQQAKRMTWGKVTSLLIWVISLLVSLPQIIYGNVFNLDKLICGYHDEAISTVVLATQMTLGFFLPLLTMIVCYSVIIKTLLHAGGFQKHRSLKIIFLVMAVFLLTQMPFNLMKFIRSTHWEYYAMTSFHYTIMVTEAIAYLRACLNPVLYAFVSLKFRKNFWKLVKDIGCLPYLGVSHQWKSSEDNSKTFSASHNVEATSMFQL
T2 sequence (P30874 whole entry): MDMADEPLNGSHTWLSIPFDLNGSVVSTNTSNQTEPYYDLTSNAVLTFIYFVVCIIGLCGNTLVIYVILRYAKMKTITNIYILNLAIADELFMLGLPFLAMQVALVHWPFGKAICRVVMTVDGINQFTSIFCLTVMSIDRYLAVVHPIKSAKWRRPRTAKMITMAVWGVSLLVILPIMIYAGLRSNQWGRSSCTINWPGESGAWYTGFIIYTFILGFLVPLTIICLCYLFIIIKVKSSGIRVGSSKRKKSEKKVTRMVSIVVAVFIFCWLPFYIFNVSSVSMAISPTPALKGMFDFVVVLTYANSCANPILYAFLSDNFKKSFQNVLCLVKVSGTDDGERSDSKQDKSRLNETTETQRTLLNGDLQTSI
T5 sequence (Q8TCW9 whole entry): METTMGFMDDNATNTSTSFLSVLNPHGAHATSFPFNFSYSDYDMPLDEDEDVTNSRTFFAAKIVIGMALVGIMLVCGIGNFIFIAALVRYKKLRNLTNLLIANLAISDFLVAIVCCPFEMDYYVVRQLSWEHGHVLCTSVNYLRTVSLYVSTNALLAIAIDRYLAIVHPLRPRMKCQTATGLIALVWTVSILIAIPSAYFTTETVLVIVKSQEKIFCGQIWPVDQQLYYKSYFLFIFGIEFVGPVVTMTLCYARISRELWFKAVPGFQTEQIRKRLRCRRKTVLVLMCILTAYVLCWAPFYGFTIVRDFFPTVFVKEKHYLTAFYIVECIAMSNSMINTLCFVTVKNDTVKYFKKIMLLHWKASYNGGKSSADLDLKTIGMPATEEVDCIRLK

Compound	% Agonist Activity ([1]; CXCR6, 1 uM) [%]	% Antagonist Activity ([1]; CXCR6, 1 uM) [%]	% Agonist Activity ([1]; CXCR6, 10 uM) [%]	% Antagonist Activity ([1]; CXCR6, 10 uM) [%]	% Agonist Activity ([2]; Conc 1 uM) [%]	% Antagonist Activity ([2]; Conc 1 uM) [%]	% Agonist Activity ([2]; Conc 10 uM) [%]	% Antagonist Activity ([2]; Conc 10 uM) [%]	% Agonist Activity ([3]; 1 uM) [%]	% Antagonist Activity ([3]; 1 uM) [%]	% Agonist Activity ([3]; 10 uM) [%]	% Antagonist Activity ([3]; 10 uM) [%]	% Agonist Activity ([4]; Conc 1 uM) [%]	% Antagonist Activity ([4]; Conc 1 uM) [%]	% Agonist Activity ([4]; Conc 10 uM) [%]	% Antagonist Activity ([4]; Conc 10 uM) [%]	% Agonist Activity ([5]; Conc 1 uM) [%]	% Antagonist Activity ([5]; Conc 1 uM) [%]	% Agonist Activity ([5]; Conc 10 uM) [%]	% Antagonist Activity ([5]; Conc 10 uM) [%]	other results
CNC(C)Cc1ccc2c(c1)OCO2 (stereo not drawn) [MDMA, 3,4-Methylenedioxy methamphetamine, reference compound]	14.7	20.9	3.8	5.2	0	2.7	0.2	9.1	-1.6	18.7	-1.6	35.1	1.7	16.7	0.5	18.1	0.3	-8.7	0.7	8.5	% Agonist Activity ([6]; 1 uM): 3%; % Antagonist Activity ([6]; 1 uM): -30.8%; % Agonist Activity ([6]; 10 uM): 3.1%; % Antagonist Activity ([6]; 10 uM): -7%; % Agonist Activity ([7]; MRGPRX2, 1 uM): -0.8%; % Antagonist Activity ([7]; MRGPRX2, 1 uM): -6%; % Agonist Activity ([7]; MRGPRX2, 10 uM): -0.8%; % Antagonist Activity ([7]; MRGPRX2, 10 uM): 1.9%; % Agonist Activity ([8]; EDG7, 1 uM): -2.8%; % Antagonist Activity ([8]; EDG7, 1 uM): -7%; % Agonist Activity ([8]; EDG7, 10 uM): -2.4%; % Antagonist Activity ([8]; EDG7, 10 uM): 0.8%; % Agonist Activity ([9]; HRH3, 1 uM): -3.1%; % Antagonist Activity ([9]; HRH3, 1 uM): 6.2%; % Agonist Activity ([9]; HRH3, 10 uM): -2.6%; % Antagonist Activity ([9]; HRH3, 10 uM): 22.6%
CNC(C)C(=O)c1ccc2c(c1)OCO2 (stereo not drawn) [methylone]	0.3	27.2	0.3	12.6	0	-0.4	0.7	-4.2	-3.3	17.9	-2.9	20.6	-6.3	11.8	-4.1	10.4	-1.3	8.7	-2.8	3.3	% Agonist Activity ([6]; 1 uM): -6.6%; % Antagonist Activity ([6]; 1 uM): 25.8%; % Agonist Activity ([6]; 10 uM): -7.2%; % Antagonist Activity ([6]; 10 uM): 9.1%; % Agonist Activity ([7]; MRGPRX2, 1 uM): 1.4%; % Antagonist Activity ([7]; MRGPRX2, 1 uM): 16.2%; % Agonist Activity ([7]; MRGPRX2, 10 uM): 0.7%; % Antagonist Activity ([7]; MRGPRX2, 10 uM): 8.9%; % Agonist Activity ([8]; EDG7, 1 uM): 3%; % Antagonist Activity ([8]; EDG7, 1 uM): 19.5%; % Agonist Activity ([8]; EDG7, 10 uM): 1.1%; % Antagonist Activity ([8]; EDG7, 10 uM): 17.9%; % Agonist Activity ([9]; HRH3, 1 uM): -3.4%; % Antagonist Activity ([9]; HRH3, 1 uM): 9.5%; % Agonist Activity ([9]; HRH3, 10 uM): -3.7%; % Antagonist Activity ([9]; HRH3, 10 uM): 5.8%
